Measurements taken from patent US7238813B2, “Chemical compounds” (Smithkline Beecham Corporation, priority 2000, dated 2007).
Structures can show the parent of a compound that is named as a salt.

Assays:
GST-VEGFR2 = biological target: T1, GST-VEGFR2 (Homo sapiens, UniProt P35968); assay: VEGF-R2 enzyme assay (VEGF-E), LANCE method; format: biochemical; settings: 75 μM ATP
T1 construct: GST-VEGFR2, baculovirus expressed recombinant constructs of the intracellular domains of human TIE2 tagged by GST; made in house
T1 sequence (P35968 786-1356 limits assumed): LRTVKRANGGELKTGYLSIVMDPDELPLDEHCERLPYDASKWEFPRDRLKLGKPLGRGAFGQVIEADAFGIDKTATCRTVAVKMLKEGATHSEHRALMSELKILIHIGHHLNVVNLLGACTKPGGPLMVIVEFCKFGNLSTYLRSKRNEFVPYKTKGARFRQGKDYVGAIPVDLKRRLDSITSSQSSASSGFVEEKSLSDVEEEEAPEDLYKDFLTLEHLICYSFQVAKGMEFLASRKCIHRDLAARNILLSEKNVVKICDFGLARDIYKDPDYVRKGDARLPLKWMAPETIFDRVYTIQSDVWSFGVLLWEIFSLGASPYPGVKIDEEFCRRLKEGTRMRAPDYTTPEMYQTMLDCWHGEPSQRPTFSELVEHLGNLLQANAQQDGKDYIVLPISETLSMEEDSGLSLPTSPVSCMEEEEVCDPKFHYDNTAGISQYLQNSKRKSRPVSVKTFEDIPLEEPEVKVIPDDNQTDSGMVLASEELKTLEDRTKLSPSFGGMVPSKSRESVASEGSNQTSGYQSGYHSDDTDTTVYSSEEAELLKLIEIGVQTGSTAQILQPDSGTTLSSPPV

[1] = biological target: T2, GST-TIE2 (intracellular domains of human TIE2) (Homo sapiens, UniProt Q02763); assay: TIE-2 enzyme assay (TIE2-E), LANCE method; format: biochemical; settings: 80 uM ATP
T2 construct: made in house
T2 sequence (Q02763 762-1104): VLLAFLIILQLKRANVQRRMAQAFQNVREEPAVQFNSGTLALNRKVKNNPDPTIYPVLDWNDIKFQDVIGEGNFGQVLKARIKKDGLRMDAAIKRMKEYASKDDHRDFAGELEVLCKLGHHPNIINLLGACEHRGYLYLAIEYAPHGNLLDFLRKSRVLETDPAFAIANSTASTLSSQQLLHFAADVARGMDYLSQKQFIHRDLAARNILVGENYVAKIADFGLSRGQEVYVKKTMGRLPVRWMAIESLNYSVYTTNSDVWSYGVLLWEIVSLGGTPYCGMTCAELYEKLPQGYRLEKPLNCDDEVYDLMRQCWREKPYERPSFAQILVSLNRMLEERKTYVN
Procedure, shortened: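 Baculovirus GST-TIE2 (human intracellular domain, aa 762–1104) preactivated 30 min at RT with 2 mM ATP, then reacted 30 min at RT with 1 μM D1-15 peptide, 80 uM ATP, 10 mM MgCl2, pH 7.4, 2.4% DMSO. EDTA-stopped; LANCE Eu-anti-pTyr/streptavidin-APC read-out. IC50 by nonlinear regression, reported as pIC50.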

[2] = test system: Human umbilical cord endothelial cells (HUVEC); assay: VEGF-driven cellular proliferation assay: BrdU incorporation assay (VEGF-C); format: cell-based; design: key to VEGF-C: + = pIC50 of 5.0–6.0; ++ = pIC50 of 6.0–7.0; +++ = pIC50 of > 7.0; − = a negative or inconclusive result; settings: for IC50: Homo sapiens
Experimental: VFGF-driven Cellular Proliferation Assay: BrdU Incorporation Assay (VEGF-C)
Human umbilical cord endothelial cells (HUVEC, Clonetics, CC2519) were passaged in Type I collagen-coated 100-mm petridishes in EGM-MV medium (Clonetics, CC3125) at 37° C. in a humidified 5% CO2, 95% air incubator. (HUVEC passaged more than 6 times in vitro were discarded and not subjected to assaying.) The cells were harvested using trypsin/EDTA, counted using a haemocytometer and plated at 5000 cells/well in a Type I-collagen coated 96-well plate (Becton Dickinson, 354407) in M199 medium (Gibco BRL, 12340-030) containing 5% FBS (Hyclone, A 1115-L) and gentamicin (at 50 μg/ml, Gibco BRL). After incubation overnight at 37° C., the media were replaced with 100 μl of M199 serum-free medium containing compounds at various concentrations with 0.6% DMSO and gentamicin. The compounds were diluted in serum-free M199 medium from 10 mM stock solutions prepared in 100% DMSO. After a 30 min incubation at 37° C., the cells were fed with 100 μl of serum-free M199 medium containing gentamicin, 0.2% culture-grade bovine serum albumin (BSA, Sigma A1993) and 20 ng/ml of VEGF (R&D systems, 293-VE) or 0.6 ng/ml of basic FGF (R&D systems, 233-FB), and cultured at 37° C. for another 24 h. The cells were pulsed with bromodeoxyuridine (BrdU at 10 μM in serum-free M199) at 37° C. for an additional 24 h. The incorporation of BrdU into the proliferating HUVEC were analyzed using BrdU Cell Proliferation ELISA (Roche Molecular Biochemicals, 1647229) according to the manufacturer's protocols. The optical density at 450 nm was measured with a multilabel counter (ARVO SX, Wallac). The percent inhibition of cell growth was calculated relative to blank control wells. The concentration of test compound that inhibits 50% of cell growth (IC50) was interpolated using nonlinear regression (Levernberg-Marquardt) and the equation, y=Vmax (1−x/(K+x))+Y2, where “K” was equal to the IC50. The IC50, values were converted to pIC50 values, i.e., −log IC50 in Molar concentration.

[3] = biological target: T3, TIE2 intracellular domain/c-fms extracellular domain (TIE2/c-fms) chimeric protein expressing mouse 3T3 cells (Homo sapiens, UniProt Q02763); assay: TIE-2 autophosphorylation assay (TIE2-C), ELISA; format: cell-based; settings: TIE2/c-fms 3T3 cells, MCSF activation
T3 construct: a TIE2 intracellular domain/c-fms extracellular domain (TIE2/c-fms) chimeric protein; expressed in transfected cells; host or cells: mouse 3T3 cells
T3 sequence (Q02763 770-1124 limits assumed, change not shown): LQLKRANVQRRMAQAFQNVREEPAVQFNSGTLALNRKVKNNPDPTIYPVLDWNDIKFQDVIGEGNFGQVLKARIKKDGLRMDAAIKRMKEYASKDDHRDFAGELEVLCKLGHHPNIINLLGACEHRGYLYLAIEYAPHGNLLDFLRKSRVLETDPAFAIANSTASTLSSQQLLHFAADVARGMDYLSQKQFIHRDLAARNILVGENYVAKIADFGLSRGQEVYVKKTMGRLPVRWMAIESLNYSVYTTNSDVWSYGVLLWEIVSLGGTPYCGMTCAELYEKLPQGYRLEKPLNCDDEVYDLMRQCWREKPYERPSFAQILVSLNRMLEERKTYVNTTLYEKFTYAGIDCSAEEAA
Experimental: TIE-2 Autophosphorylation Assay (TIE2-C)
The TIE-2 autophosphorylation assay used an ELISA method and a TIE2 intracellular domain/c-fms extracellular domain (TIE2/c-fms) chimeric protein expressing mouse 3T3 cells. This assay measured the autophosphorylation level of TIE2 protein expressed in cells. The cells were cultured in high glucose DMEM (Sigma) containing 10% serum at 37° C. in a humidified 10% CO2, 90% air incubator. The test compound (diluted from a 10 mM stock in DMSO, final DMSO concentration was 0.1%) was incubated with TIE2/c-fms expressing cells for 1 hr in serum free DMEM in 96 well plates followed by the activation of TIE2/c-fms receptor using c-fms ligand, MCSF (macrophage colony stimulating factor). The culture media was removed by aspiration and the cells incubated for at least 30 mins on ice with lysis buffer containing 137 mM NaCl, 2 mM EDTA, 10% glycerol, […] sodium ortho vanadate and complete protease inhibitor cocktail (Roche) in 20 mM Tris-HCl (pH8.0). The cell extracts were transferred into Rat anti-c-fms antibody coated 96 well plates and incubated for 12 hrs at 4° C. The extracts were removed by aspiration and the plate was incubated with biotinylated anti-phosphotyrosine antibody, PT66 (Sigma) and then with HRP (Horseradish Peroxidase)-labeled streptavidin (PIERCE). The optical density at 450 nm derived from HRP catalyzed TMB was measured with an ARVO multilabel counter. (Wallac Berthold Japan). The percent inhibition of activity was calculated relative to blank control wells. The concentration of test compound that inhibits 50% of activity (IC50) was interpolated using nonlinear regression (Levernberg-Marquardt) and the equation, y=Vmax (1−x/(K+x))+Y2, where “K” was equal to the IC50. The IC50 values were converted to pIC50 values, i.e., −log IC50 in Molar concentration.

Compound	IC50 (GST-VEGFR2)	IC50 [1]	IC50 [2]	IC50 [3]	VEGF-C [2]
COC(=O)Nc1nc2cc(Oc3cccc(NC(=O)Nc4cccc(Cl)c4)c3)ccc2[nH]1 [Example 14, Methyl (5-(3-((3-Chlorophenyl)aminocarbonylamino)phenoxy)-1H-benzimidazol-2-yl)carbamate hydrochloride]	< 100 nM	100 to 1000 nM	100 to 1000 nM	100 to 1000 nM	
COC(=O)Nc1nc2cc(Oc3cccc(NC(=O)Nc4cc(C(F)(F)F)ccc4F)c3)ccc2[nH]1 [Example 15, Methyl N-(5-(3-((2-Fluoro-5-(trifluoromethyl)phenyl)aminocarbonylamino)phenoxy)-1H-benzimidazol-2-yl)carbamate]	< 100 nM	< 100 nM	100 to 1000 nM	< 100 nM	
CCOC(=O)Nc1nc2cc(Oc3ccc(NC(=O)Nc4cc(C(F)(F)F)ccc4F)cc3)ccc2[nH]1 [Example 17, Ethyl N-(5-(4-((2-fluoro-5-(trifluoromethyl)phenyl)aminocarbonylamino)phenoxy)-1H-benzimidazol-2-yl)carbamate]	< 100 nM	< 100 nM	< 100 nM	< 100 nM	
CC(C)(C)OC(=O)Nc1nc2cc(Oc3ccc(NC(=O)Nc4cc(C(F)(F)F)ccc4F)cc3)ccc2[nH]1 [Example 18, t-Butyl N-(5-(4-((2-fluoro-5-(trifluoromethyl)phenyl)aminocarbonylamino)phenoxy)-1H-benzimidazol-2-yl)carbamate]	< 100 nM	< 100 nM	< 100 nM	< 100 nM	
COC(=O)Nc1nc2cc(Oc3ccc(NC(=O)Nc4cccc(C(F)(F)F)c4)cc3)ccc2[nH]1 [Example 19, Methyl N-(5-(4-((3-(trifluoromethyl)phenyl)aminocarbonylamino)phenoxy)-1H-benzimidazol-2-yl)carbamate]	< 100 nM	< 100 nM		< 100 nM	−
Nc1nc2ccc(Oc3ccc(NC(=O)Nc4cc(C(F)(F)F)ccc4F)cc3)cc2[nH]1 [Example 22, 2-Amino-5-(4-((2-fluoro-5-(trifluoromethyl)phenyl)aminocarbonylamino)phenoxy)-1H-benzimidazole.]	< 100 nM	< 100 nM	1000 to 10000 nM	1000 to 10000 nM	
Cc1ccc(S(=O)(=O)n2c(N)nc3ccc(Oc4ccc(NC(=O)Nc5cc(C(F)(F)F)ccc5F)cc4)cc32)cc1 [Example 24, 6-(4-((2-Fluoro-5-(trifluoromethyl)phenyl)aminocarbonylamino)phenoxy)-1-(4-(methyl)phenylsulfonyl)-1H-benzimidazol-2-ylamine]	< 100 nM	< 100 nM		100 to 1000 nM	−
O=C(Nc1ccc(Oc2ccc3[nH]c(NC(=O)C4CCCC4)nc3c2)cc1)Nc1cc(C(F)(F)F)ccc1F [Example 26, N-(5-(4-((2-Fluoro-5-(trifluoromethyl)phenyl)aminocarbonylamino)phenoxy)-1H-benzimidazol-2-yl)cyclopentamide]	< 100 nM	< 100 nM	100 to 1000 nM	100 to 1000 nM	
CC(C)CCC(=O)Nc1nc2cc(Oc3ccc(NC(=O)Nc4cc(C(F)(F)F)ccc4F)cc3)ccc2[nH]1 [Example 28, N-(5-(4-((2-Fluoro-5-(trifluoromethyl)phenyl)aminocarbonylamino)phenoxy)-1H-benzimidazol-2-yl)-4-methylpentamide]	< 100 nM	< 100 nM	100 to 1000 nM	< 100 nM	
CC(=O)NCC(=O)Nc1nc2cc(Oc3ccc(NC(=O)Nc4cc(C(F)(F)F)ccc4F)cc3)ccc2[nH]1 [Example 29, N-(5-(4-((2-Fluoro-5-(trifluoromethyl)phenyl)aminocarbonylamino)phenoxy)-1H-benzimidazol-2-yl)-2-(N-acetylamino)acetamide]	< 100 nM	< 100 nM	100 to 1000 nM	< 100 nM	
NCC(=O)Nc1nc2cc(Oc3ccc(NC(=O)Nc4cc(C(F)(F)F)ccc4F)cc3)ccc2[nH]1 [Example 30, N-(5-(4-((2-Fluoro-5-(trifluoromethyl)phenyl)aminocarbonylamino)phenoxy)-1H-benzimidazol-2-yl)-2-aminoacetamide dihydrochloride]	< 100 nM	< 100 nM	100 to 1000 nM	< 100 nM	
COCC(=O)Nc1nc2cc(Oc3ccc(NC(=O)Nc4cc(C(F)(F)F)ccc4F)cc3)ccc2[nH]1 [Example 31, N-(5-(4-((2-Fluoro-5-(trifluoromethyl)phenyl)aminocarbonylamino)phenoxy)-1H-benzimidazol-2-yl)-2-methoxyacetamide]	< 100 nM	< 100 nM	< 100 nM	< 100 nM	
COCCOCCOCC(=O)Nc1nc2ccc(Oc3ccc(NC(=O)Nc4cc(C(F)(F)F)ccc4F)cc3)cc2[nH]1 [Example 33, N-(5-(4-((2-Fluoro-5-(trifluoromethyl)phenyl)aminocarbonylamino)phenoxy)-1H-benzimidazol-2-yl)(2-(2-(methoxy)ethoxy)ethoxy)acetamide]	< 100 nM	< 100 nM	< 100 nM	< 100 nM	
CC(C)(C)OC(=O)NCC(=O)Nc1nc2cc(Oc3ccc(NC(=O)Nc4cc(C(F)(F)F)ccc4F)cc3)ccc2[nH]1 [Example 35, N-(5-(4-((2-Fluoro-5-(trifluoromethyl)phenyl)aminocarbonylamino)phenoxy)-1H-benzimidazol-2-yl)-2-(N-(t-butoxycarbony)amino)acetamide]	< 100 nM	< 100 nM	1000 to 10000 nM	100 to 1000 nM	
COC(=O)Nc1nc2cc(Oc3ccc(NC(=O)Nc4cc(C(F)(F)F)ccc4F)cn3)ccc2[nH]1 [Example 37, Methyl N-(5-(5-((2-fluoro-5-(trifluoromethyl)phenyl)aminocarbonylamino)-2-pyridyloxy)-1H-benzimidazol-2-yl)carbamate]	< 100 nM	< 100 nM		< 100 nM	−
COC(=O)Nc1nc2cc(Oc3ccc(NC(=O)Nc4cccc(C(F)(F)F)c4)cn3)ccc2[nH]1 [Example 38]	< 100 nM	< 100 nM		< 100 nM	−
COC(=O)Nc1nc2cc(Oc3ccc(NC(=O)Nc4cc(OC)ccc4OC)cc3)ccc2[nH]1 [Example 42, Methyl N-(5-(4-((2,5-dimethoxyphenyl)aminocarbonylamino)phenoxy)-1H-benzimidazol-2-yl)carbamate]	< 100 nM	< 100 nM	100 to 1000 nM	< 100 nM	
